Assay results reported in PMC7377239, “Cardiovascular Effects of Polychlorinated Biphenyls and Their Major Metabolites” (Environmental Health Perspectives, 2020).
Counter-ions that a name gives are not always drawn. Like-named read-outs stand apart in the source and are kept apart here.

Columns and labels:
HUVECs = experiment: High-content imaging cytotoxicity in HUVECs, 24 h; format: cell-based, human; conditions: Homo sapiens, HUVEC, 24 h, HUVECs; for viability at 0.01 µM / activity at 0.01 µM / viability at 0.1 µM / activity at 0.1 µM / viability at 1 µM / activity at 1 µM / viability at 10 µM / activity at 10 µM / viability at 100 µM / activity at 100 µM: 0.00 µM = 100.00; for viability at 0.1 µM / activity at 0.1 µM: 0.10 µM; for minimal effective concentration: top concentration 100.00 µM
Procedure, shortened: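 Point-of-departure values derive from four-parameter logistic fits of vehicle-normalized imaging phenotypes (Hoechst 33342, MitoTracker Orange, calcein AM). The fits follow 24 h exposure of HUVEC monolayers at 37°C and 5% CO2, with a top tested concentration of 100μM.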

[1] = tested on: iCell cardiomyocytes (human iPSC-derived cardiomyocytes); experiment: High-content imaging of cytotoxicity and mitochondrial integrity in iPSC-CMs; format: cell-based; conditions: Homo sapiens; for viability at 0.01 µM / activity at 0.01 µM / viability at 0.1 µM / activity at 0.1 µM / viability at 1 µM / activity at 1 µM / viability at 10 µM / activity at 10 µM / viability at 100 µM / activity at 100 µM: Cardiomyocyte, 0.00 µM = 100.00; for viability at 0.1 µM / activity at 0.1 µM: 0.10 µM; for minimal effective concentration: iPSC-CM
Procedure, shortened: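 Human iPSC-derived cardiomyocytes were seeded on gelatin-coated 384-well plates at 5,000 cells per well and maintained for 12 d. Test chemicals were added as 10μL of 5× solutions to final concentrations of 0.01 to 100μM. Cells were stained with Hoechst 33342 and MitoTracker™ Orange, fixed in formaldehyde, and imaged by confocal high-content microscopy at 10× magnification.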

[2] = 24 hr, read-out: huvec.cyto.24hr
[3] = 24 hr, read-out: huvec.mito.24hr
[4] = 24 hr, read-out: huvec.mitoint.24hr
[5] = 24 hr, read-out: huvec.nma.24hr
[6] = 24 hrs, read-out: huvec.tc.24hrs

Molecule `O=S(=O)(O)Oc1cc(Cl)ccc1-c1ccccc1` [2-yl PCB 3 sulfate] has a viability at 0.01 µM (HUVECs; [2]) of 95%, an activity at 0.01 µM (HUVECs; [3]) of 93.7% and an activity at 0.01 µM (HUVECs; [4]) of 96.9%. For the same molecule, the activity at 0.01 µM (HUVECs; [5]) was 100%, the viability at 0.1 µM (HUVECs; [2]) was 105% and the activity at 0.1 µM (HUVECs; [3]) was 105%. For the same molecule, the activity at 0.1 µM (HUVECs; [4]) was 103%, the activity at 0.1 µM (HUVECs; [5]) was 95.3% and the viability at 1 µM (HUVECs; [2]) was 95%. For the same molecule, the activity at 1 µM (HUVECs; [3]) was 94.6%, the activity at 1 µM (HUVECs; [4]) was 92.6% and the activity at 1 µM (HUVECs; [5]) was 95.4%. It also gave a viability at 10 µM (HUVECs; [2]) of 83.5%, an activity at 10 µM (HUVECs; [3]) of 83.3% and an activity at 10 µM (HUVECs; [4]) of 97.9%. For the same molecule, the activity at 10 µM (HUVECs; [5]) was 97.9%, the viability at 100 µM (HUVECs; [2]) was 93% and the activity at 100 µM (HUVECs; [3]) was 92.1%. The activity at 100 µM (HUVECs; [4]) was 93.3%, the activity at 100 µM (HUVECs; [5]) was 96% and the minimal effective concentration (HUVECs; 24 hr, read-out: huvec.cyto.24hr POD) was 100 µM. For the same molecule, the minimal effective concentration (HUVECs; 24 hr, read-out: huvec.mito.24hr POD) was 100 µM, the minimal effective concentration (HUVECs; 24 hr, read-out: huvec.mitoint.24hr POD) was 100 µM and the minimal effective concentration (HUVECs; 24 hr, read-out: huvec.nma.24hr POD) was 100 µM. For the same molecule, the viability at 0.01 µM (HUVECs; [6]) was 95%, the viability at 0.1 µM (HUVECs; [6]) was 105% and the viability at 1 µM (HUVECs; [6]) was 95%. It also gave a viability at 10 µM (HUVECs; [6]) of 83.5%, a viability at 100 µM (HUVECs; [6]) of 93% and a minimal effective concentration (HUVECs; 24 hrs, read-out: huvec.tc.24hrs POD) of 100 µM. The viability at 0.01 µM ([1]; 1.5 h, read-out: cm.cam.90min) was 88.1%, the activity at 0.01 µM ([1]; 1.5 h, read-out: cm.mii.90min) was 116% and the activity at 0.01 µM ([1]; 1.5 h, read-out: cm.mito.90min) was 87.6%. The viability at 0.01 µM ([1]; 1.5 h, read-out: cm.tc.90min) was 88.3%, the viability at 0.1 µM ([1]; 1.5 h, read-out: cm.cam.90min) was 98.3% and the activity at 0.1 µM ([1]; 1.5 h, read-out: cm.mii.90min) was 105%. The activity at 0.1 µM ([1]; 1.5 h, read-out: cm.mito.90min) was 98.4%, the viability at 0.1 µM ([1]; 1.5 h, read-out: cm.tc.90min) was 98.4% and the viability at 1 µM ([1]; 1.5 h, read-out: cm.cam.90min) was 105%. For the same molecule, the activity at 1 µM ([1]; 1.5 h, read-out: cm.mii.90min) was 88.6%, the activity at 1 µM ([1]; 1.5 h, read-out: cm.mito.90min) was 105% and the viability at 1 µM ([1]; 1.5 h, read-out: cm.tc.90min) was 105%. The viability at 10 µM ([1]; 1.5 h, read-out: cm.cam.90min) was 100%, the activity at 10 µM ([1]; 1.5 h, read-out: cm.mii.90min) was 96.5% and the activity at 10 µM ([1]; 1.5 h, read-out: cm.mito.90min) was 101%. It also gave a viability at 10 µM ([1]; 1.5 h, read-out: cm.tc.90min) of 101%, a viability at 100 µM ([1]; 1.5 h, read-out: cm.cam.90min) of 104% and an activity at 100 µM ([1]; 1.5 h, read-out: cm.mii.90min) of 81%. It also gave an activity at 100 µM ([1]; 1.5 h, read-out: cm.mito.90min) of 105%, a viability at 100 µM ([1]; 1.5 h, read-out: cm.tc.90min) of 105% and a viability at 0.01 µM ([1]; 24 h, read-out: cm.cam.24hrs) of 99.2%. For the same molecule, the activity at 0.01 µM ([1]; 24 h, read-out: cm.mii.24hrs) was 94.5%, the activity at 0.01 µM ([1]; 24 h, read-out: cm.mito.24hrs) was 100% and the viability at 0.01 µM ([1]; 24 h, read-out: cm.tc.24hrs) was 101%. The viability at 0.1 µM ([1]; 24 h, read-out: cm.cam.24hrs) was 101%, the activity at 0.1 µM ([1]; 24 h, read-out: cm.mii.24hrs) was 102% and the activity at 0.1 µM ([1]; 24 h, read-out: cm.mito.24hrs) was 101%. The viability at 0.1 µM ([1]; 24 h, read-out: cm.tc.24hrs) was 101%, the viability at 1 µM ([1]; 24 h, read-out: cm.cam.24hrs) was 101% and the activity at 1 µM ([1]; 24 h, read-out: cm.mii.24hrs) was 102%. For the same molecule, the activity at 1 µM ([1]; 24 h, read-out: cm.mito.24hrs) was 103%, the viability at 1 µM ([1]; 24 h, read-out: cm.tc.24hrs) was 101% and the viability at 10 µM ([1]; 24 h, read-out: cm.cam.24hrs) was 102%. For the same molecule, the activity at 10 µM ([1]; 24 h, read-out: cm.mii.24hrs) was 85.7%, the activity at 10 µM ([1]; 24 h, read-out: cm.mito.24hrs) was 102% and the viability at 10 µM ([1]; 24 h, read-out: cm.tc.24hrs) was 102%. For the same molecule, the viability at 100 µM ([1]; 24 h, read-out: cm.cam.24hrs) was 98.3%, the activity at 100 µM ([1]; 24 h, read-out: cm.mii.24hrs) was 91.6% and the activity at 100 µM ([1]; 24 h, read-out: cm.mito.24hrs) was 99.6%. The viability at 100 µM ([1]; 24 h, read-out: cm.tc.24hrs) was 98.5%, the minimal effective concentration ([1]; 1.5 h, read-out: cm.cam.90min POD) was 100 µM and the minimal effective concentration ([1]; 1.5 h, read-out: cm.mii.90min POD) was 7.39 µM. For the same molecule, the minimal effective concentration ([1]; 1.5 h, read-out: cm.mito.90min POD) was 100 µM, the minimal effective concentration ([1]; 1.5 h, read-out: cm.tc.90min POD) was 100 µM and the minimal effective concentration ([1]; 24 h, read-out: cm.cam.24hrs POD) was 100 µM. The minimal effective concentration ([1]; 24 h, read-out: cm.mii.24hrs POD) was 100 µM, the minimal effective concentration ([1]; 24 h, read-out: cm.mito.24hrs POD) was 100 µM and the minimal effective concentration ([1]; 24 h, read-out: cm.tc.24hrs POD) was 100 µM.
